Reference: patent publication US20240408169A1 (priority 2023, published 2024)
Like-named read-outs stand apart in the source and are kept apart here. *1 amine or outer side, *2 acyl side, *3 side chain or, on linkers, in order; H or OH if unused. Where a SMILES comes first, the peptide text is derived from it. Bridges are numbered along the chain shown (N, C = ends). [ ]: non-standard residue; d: D form. The star is where a group is joined. X172 = CC(=O)N1CC=C(c2ccc(F)cc2C[C@@H](C(=O)[*:2])N(C)[*:1])CC1; X123 = CN([C@@H](Cc1cc(Cl)ccc1-c1ccc[nH]c1=O)C(=O)[*:2])[*:1]; X26 = CN([C@@H](Cc1cc(F)ccc1-c1cnn(C2CC2)c1)C(=O)[*:2])[*:1]; NMe3Pal(2-OiBu,5-Cl) = CN[C@@H](Cc1cc(Cl)cnc1OCC(C)C)C(=O)O; NMehhhLys(Me) = CN([C@@H](CCCCCCCN(C)[*:3])C(=O)[*:2])[*:1]; X139 = Cc1[nH]ncc1-c1ccc(Cl)cc1C[C@@H](C(=O)[*:2])N(C)[*:1]; X180 = CN([C@@H](Cc1cc(F)ccc1-c1cnn2c1CCC2)C(=O)[*:2])[*:1]; X135 = CN([C@@H](Cc1cc(Cl)ccc1-c1cn(C)cn1)C(=O)[*:2])[*:1]; X168 = Cc1ncc(-c2ccc(Cl)cc2C[C@@H](C(=O)[*:2])N(C)[*:1])o1; X174 = CN([C@@H](Cc1cc(Cl)cnc1-c1cnn(C)c1)C(=O)[*:2])[*:1]; X188 = CN([C@@H](Cc1cc(Cl)ccc1-c1ccn(C)n1)C(=O)[*:2])[*:1]; X112 = CN([C@@H](Cc1cc(F)ccc1-c1cnn(C)c1)C(=O)[*:2])[*:1]; X131 = CN([C@@H](Cc1cc(F)cnc1-c1cnn(C)c1)C(=O)[*:2])[*:1]; X22 = CN([C@@H](Cc1cc(Cl)ccc1-c1cnn(C)c1)C(=O)[*:2])[*:1]; X154 = Cc1oncc1-c1ccc(Cl)cc1C[C@@H](C(=O)[*:2])N(C)[*:1]; X199 = CN([C@@H](Cc1cc(Cl)ccc1C1=CCOC1)C(=O)[*:2])[*:1]; NMe(hhhLys) = CN([C@@H](CCCCCCCN[*:3])C(=O)[*:2])[*:1]; Oxane2carbonyl(2R-CF3) = O=C([C@@]1(C(F)(F)F)CCCCO1)*; Cyclobutanecarbonyl(1-CF3) = O=C(C1(C(F)(F)F)CCC1)*; cBuCO(3,3-F2-1-CF3) = O=C(C1(C(F)(F)F)CC(F)(F)C1)*; Pro(trans-4-F) = O=C(O)[C@@H]1C[C@@H](F)CN1; Pivaloyl(3,3,3-F3) = CC(C)(C(=O)*)C(F)(F)F; Gly(cPr) = N[C@H](C(=O)O)C1CC1

Tests used:
CyclinE1/CDK2 = biological target: T1, CyclinE1/CDK2 (Homo sapiens, UniProt P24864); assay: Fluorescence Polarization (FP) competitive binding assay, Cyclin E1/Cdk2;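 further: readings taken after two-hour equilibration at room temperature in HEPES buffer with NaCl, DTT, NP-40 and BSA, IC50 fitted from eight-concentration serial dilution series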
T1 construct: purchased Eurofins, discovery 14-475

OVCAR3 cells = assay: MTT proliferation assay, OVCAR3; format: cell-based; details: 5 days compound exposure, 1:3 serial dilution starting at 10 μM;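 further: compound given as an 8- or 10-point series, one day after plating, with exposure covering roughly 3-4 cell doublings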
NCI-H1048 cells = assay: MTT proliferation assay, NCI-H1048; format: cell-based; details: 5 days compound exposure, 1:3 serial dilution starting at 10 μM;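 further: Dose-response in 96-well plates over 8 or 10 concentration points, with exposure spanning 3-4 cell doublings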
CyclinB1/CDK1 = biological target: T2, CyclinB1/CDK1 (Homo sapiens, UniProt P14635); assay: Fluorescence Polarization (FP) competitive binding assay, Cyclin B1/Cdk1;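 further: fluorescence polarization read after equilibration at room temperature, with IC50 taken from serially diluted dose-response curves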
T2 construct: purchased Eurofins, discovery 14-450

CyclinA2/CDK2 = biological target: T3, CyclinA2/CDK2 (Homo sapiens, UniProt P20248); assay: Fluorescence Polarization (FP) competitive binding assay, Cyclin A2/Cdk2;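 further: plates equilibrated two hours at room temperature before polarization reading, IC50 fitted from eight-concentration compound titration curves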
T3 construct: purchased CRELUX Protein Services

[1] = read-out: Cyclin B FP IC50; 10 nM Cyclin B1/Cdk1, 2 nM FAM probe; average of 2-3 independent experiments
[2] = read-out: Cyclin A FP IC50, 8 nM Cyclin A2/Cdk2, 2 nM FAM probe, average of 2-3 independent experiments
[3] = 10 nM Cyclin E1/Cdk2, 2 nM FAM probe, average of 2-3 independent experiments, read-out: Cyclin E FP IC50
[4] = 10 nM Cyclin B1/Cdk1, 2 nM FAM probe; average of 2-3 independent experiments; read-out: Cyclin B FP IC50
[5] = 8 nM Cyclin A2/Cdk2, 2 nM FAM probe, average of 2-3 independent experiments, read-out: Cyclin A FP IC50

SMILES	IC50 (CyclinE1/CDK2)	GI50 (OVCAR3 cells)	GI50 (NCI-H1048 cells)	IC50 (CyclinB1/CDK1; [1])	IC50 (CyclinA2/CDK2; [2])	IC50 (CyclinA2/CDK2)	IC50 (CyclinE1/CDK2; [3])	IC50 (CyclinB1/CDK1; [4])	IC50 (CyclinA2/CDK2; [5])
CC(C)C[C@@H]1NC(=O)[C@@H](N(C)C(=O)[C@@H](NC(=O)[C@@H]2C[C@@H](F)CN2C(=O)C(C)(C)C(F)(F)F)C2CC2)CCCCCCCN(C)C(=O)[C@H](Cc2cc(Cl)ccc2-c2cnn(C)c2)N(C)C1=O [Example 204] ({Pivaloyl(3,3,3-F3)}-[Pro(trans-4-F)][Gly(cPr)][NMehhhLys(Me)]L[X22]; lactam 3-C)	160 nM	10 nM	10 nM	20 nM	20 nM	–	–	–	–
CC(C)C[C@@H]1NC(=O)[C@@H](N(C)C(=O)[C@@H](NC(=O)[C@@H]2C[C@@H](F)CN2C(=O)C2(C(F)(F)F)CC(F)(F)C2)C2CC2)CCCCCCCN(C)C(=O)[C@H](Cc2cc(Cl)ccc2-c2ccn(C)n2)N(C)C1=O [Example 205] ({cBuCO(3,3-F2-1-CF3)}-[Pro(trans-4-F)][Gly(cPr)][NMehhhLys(Me)]L[X188]; lactam 3-C)	480 nM	30 nM	20 nM	20 nM	–	30 nM	–	–	–
Cc1ncc(-c2ccc(Cl)cc2C[C@H]2C(=O)N(C)CCCCCCC[C@H](N(C)C(=O)[C@@H](NC(=O)[C@@H]3C[C@@H](F)CN3C(=O)C3(C(F)(F)F)CC(F)(F)C3)C3CC3)C(=O)N[C@@H](CC(C)C)C(=O)N2C)o1 [Example 206] ({cBuCO(3,3-F2-1-CF3)}-[Pro(trans-4-F)][Gly(cPr)][NMehhhLys(Me)]L[X168]; lactam 3-C)	200 nM	20 nM	10 nM	20 nM	20 nM	–	–	–	–
CC(C)C[C@@H]1NC(=O)[C@@H](N(C)C(=O)[C@@H](NC(=O)[C@@H]2C[C@@H](F)CN2C(=O)C2(C(F)(F)F)CC(F)(F)C2)C2CC2)CCCCCCCN(C)C(=O)[C@H](Cc2cc(Cl)ccc2-c2ccc[nH]c2=O)N(C)C1=O [Example 208] ({cBuCO(3,3-F2-1-CF3)}-[Pro(trans-4-F)][Gly(cPr)][NMehhhLys(Me)]L[X123]; lactam 3-C)	6400 nM	1960 nM	830 nM	20 nM	–	210 nM	–	–	–
CC(C)C[C@@H]1NC(=O)[C@@H](N(C)C(=O)[C@@H](NC(=O)[C@@H]2C[C@@H](F)CN2C(=O)C2(C(F)(F)F)CC(F)(F)C2)C2CC2)CCCCCCCN(C)C(=O)[C@H](Cc2cc(Cl)ccc2C2=CCOC2)N(C)C1=O [Example 209] ({cBuCO(3,3-F2-1-CF3)}-[Pro(trans-4-F)][Gly(cPr)][NMehhhLys(Me)]L[X199]; lactam 3-C)	540 nM	20 nM	10 nM	20 nM	20 nM	–	–	–	–
Cc1[nH]ncc1-c1ccc(Cl)cc1C[C@H]1C(=O)N(C)CCCCCCC[C@H](N(C)C(=O)[C@@H](NC(=O)[C@@H]2C[C@@H](F)CN2C(=O)C2(C(F)(F)F)CC(F)(F)C2)C2CC2)C(=O)N[C@@H](CC(C)C)C(=O)N1C [Example 211] ({cBuCO(3,3-F2-1-CF3)}-[Pro(trans-4-F)][Gly(cPr)][NMehhhLys(Me)]L[X139]; lactam 3-C)	1110 nM	30 nM	20 nM	20 nM	–	50 nM	–	–	–
Cc1oncc1-c1ccc(Cl)cc1C[C@H]1C(=O)N(C)CCCCCCC[C@H](N(C)C(=O)[C@@H](NC(=O)[C@@H]2C[C@@H](F)CN2C(=O)C2(C(F)(F)F)CC(F)(F)C2)C2CC2)C(=O)N[C@@H](CC(C)C)C(=O)N1C [Example 212] ({cBuCO(3,3-F2-1-CF3)}-[Pro(trans-4-F)][Gly(cPr)][NMehhhLys(Me)]L[X154]; lactam 3-C)	4160 nM	80 nM	80 nM	20 nM	–	70 nM	–	–	–
CC(C)C[C@@H]1NC(=O)[C@@H](N(C)C(=O)[C@@H](NC(=O)[C@@H]2C[C@@H](F)CN2C(=O)C2(C(F)(F)F)CC(F)(F)C2)C2CC2)CCCCCCCNC(=O)[C@H](Cc2cc(F)ccc2-c2cnn(C3CC3)c2)N(C)C1=O [Example 213] ({cBuCO(3,3-F2-1-CF3)}-[Pro(trans-4-F)][Gly(cPr)][NMe(hhhLys)]L[X26]; lactam 3-C)	–	10 nM	10 nM	–	–	–	190 nM	20 nM	30 nM
CC(C)C[C@@H]1NC(=O)[C@@H](N(C)C(=O)[C@@H](NC(=O)[C@@H]2C[C@@H](F)CN2C(=O)C2(C(F)(F)F)CC(F)(F)C2)C2CC2)CCCCCCCNC(=O)[C@H](Cc2cc(F)ccc2-c2cnn3c2CCC3)N(C)C1=O [Example 214] ({cBuCO(3,3-F2-1-CF3)}-[Pro(trans-4-F)][Gly(cPr)][NMe(hhhLys)]L[X180]; lactam 3-C)	500 nM	10 nM	10 nM	20 nM	–	50 nM	–	–	–
CC(C)C[C@@H]1NC(=O)[C@@H](N(C)C(=O)[C@@H](NC(=O)[C@@H]2C[C@@H](F)CN2C(=O)C2(C(F)(F)F)CC(F)(F)C2)C2CC2)CCCCCCCNC(=O)[C@H](Cc2cc(F)ccc2-c2cnn(C)c2)N(C)C1=O [Example 215] ({cBuCO(3,3-F2-1-CF3)}-[Pro(trans-4-F)][Gly(cPr)][NMe(hhhLys)]L[X112]; lactam 3-C)	200 nM	10 nM	10 nM	20 nM	20 nM	–	–	–	–
CC(=O)N1CC=C(c2ccc(F)cc2C[C@H]2C(=O)NCCCCCCC[C@H](N(C)C(=O)[C@@H](NC(=O)[C@@H]3C[C@@H](F)CN3C(=O)C3(C(F)(F)F)CC(F)(F)C3)C3CC3)C(=O)N[C@@H](CC(C)C)C(=O)N2C)CC1 [Example 217] ({cBuCO(3,3-F2-1-CF3)}-[Pro(trans-4-F)][Gly(cPr)][NMe(hhhLys)]L[X172]; lactam 3-C)	–	20 nM	10 nM	–	–	–	760 nM	20 nM	30 nM
CC(C)COc1ncc(Cl)cc1C[C@H]1C(=O)N(C)CCCCCCC[C@H](N(C)C(=O)[C@@H](NC(=O)[C@@H]2C[C@@H](F)CN2C(=O)[C@@]2(C(F)(F)F)CCCCO2)C2CC2)C(=O)N[C@@H](CC(C)C)C(=O)N1C [Example 229] ({Oxane2carbonyl(2R-CF3)}-[Pro(trans-4-F)][Gly(cPr)][NMehhhLys(Me)]L[NMe3Pal(2-OiBu,5-Cl)]; lactam 3-C)	100 nM	20 nM	10 nM	20 nM	20 nM	–	–	–	–
CC(C)C[C@@H]1NC(=O)[C@@H](N(C)C(=O)[C@@H](NC(=O)[C@@H]2C[C@@H](F)CN2C(=O)C2(C(F)(F)F)CC(F)(F)C2)C2CC2)CCCCCCCN(C)C(=O)[C@H](Cc2cc(Cl)ccc2-c2cn(C)cn2)N(C)C1=O [Example 242] ({cBuCO(3,3-F2-1-CF3)}-[Pro(trans-4-F)][Gly(cPr)][NMehhhLys(Me)]L[X135]; lactam 3-C)	700 nM	20 nM	30 nM	20 nM	–	30 nM	–	–	–
CC(C)C[C@@H]1NC(=O)[C@@H](N(C)C(=O)[C@@H](NC(=O)[C@@H]2C[C@@H](F)CN2C(=O)C2(C(F)(F)F)CC(F)(F)C2)C2CC2)CCCCCCCN(C)C(=O)[C@H](Cc2cc(F)cnc2-c2cnn(C)c2)N(C)C1=O [Example 244] ({cBuCO(3,3-F2-1-CF3)}-[Pro(trans-4-F)][Gly(cPr)][NMehhhLys(Me)]L[X131]; lactam 3-C)	–	40 nM	100 nM	–	–	–	580 nM	20 nM	60 nM
CC(C)C[C@@H]1NC(=O)[C@@H](N(C)C(=O)[C@@H](NC(=O)[C@@H]2C[C@@H](F)CN2C(=O)C2(C(F)(F)F)CCC2)C2CC2)CCCCCCCN(C)C(=O)[C@H](Cc2cc(F)cnc2-c2cnn(C)c2)N(C)C1=O [Example 245] ({Cyclobutanecarbonyl(1-CF3)}-[Pro(trans-4-F)][Gly(cPr)][NMehhhLys(Me)]L[X131]; lactam 3-C)	220 nM	20 nM	80 nM	20 nM	–	40 nM	–	–	–
CC(C)C[C@@H]1NC(=O)[C@@H](N(C)C(=O)[C@@H](NC(=O)[C@@H]2C[C@@H](F)CN2C(=O)C2(C(F)(F)F)CC(F)(F)C2)C2CC2)CCCCCCCN(C)C(=O)[C@H](Cc2cc(Cl)cnc2-c2cnn(C)c2)N(C)C1=O [Example 246] ({cBuCO(3,3-F2-1-CF3)}-[Pro(trans-4-F)][Gly(cPr)][NMehhhLys(Me)]L[X174]; lactam 3-C)	640 nM	10 nM	30 nM	20 nM	20 nM	–	–	–	–
